Measurements from patent US5753617A, “Peptide inhibitors of cellular adhesion” (Centocor, Inc., priority 1995, dated 1998).
Several values for one entry are separate records, joined by “and”; a condition that tells them apart may be missing. Equal values may be shown once. Read-outs that look alike come from different tables or passages of the source. Where a SMILES comes first, the peptide text is derived from it. Bridges are numbered along the chain shown (N, C = ends). [ ]: non-standard residue; d: D form. Ava = NCCCCC(=O)O

Columns and labels:
[1] = biological target: T1, P-selectin (Homo sapiens, UniProt P16109); assay: Inhibition of human neutrophil adhesion to purified P-selectin immobilized on plastic wells; type: cell-based; conditions: inhibiting the binding of human neutrophils to P-selectin
T1 construct: P-selectin is isolated from human platelet lysates; from tissue; host or cells: human platelets (outdated platelet packs from a blood bank)
T1 sequence (P16109 42-830): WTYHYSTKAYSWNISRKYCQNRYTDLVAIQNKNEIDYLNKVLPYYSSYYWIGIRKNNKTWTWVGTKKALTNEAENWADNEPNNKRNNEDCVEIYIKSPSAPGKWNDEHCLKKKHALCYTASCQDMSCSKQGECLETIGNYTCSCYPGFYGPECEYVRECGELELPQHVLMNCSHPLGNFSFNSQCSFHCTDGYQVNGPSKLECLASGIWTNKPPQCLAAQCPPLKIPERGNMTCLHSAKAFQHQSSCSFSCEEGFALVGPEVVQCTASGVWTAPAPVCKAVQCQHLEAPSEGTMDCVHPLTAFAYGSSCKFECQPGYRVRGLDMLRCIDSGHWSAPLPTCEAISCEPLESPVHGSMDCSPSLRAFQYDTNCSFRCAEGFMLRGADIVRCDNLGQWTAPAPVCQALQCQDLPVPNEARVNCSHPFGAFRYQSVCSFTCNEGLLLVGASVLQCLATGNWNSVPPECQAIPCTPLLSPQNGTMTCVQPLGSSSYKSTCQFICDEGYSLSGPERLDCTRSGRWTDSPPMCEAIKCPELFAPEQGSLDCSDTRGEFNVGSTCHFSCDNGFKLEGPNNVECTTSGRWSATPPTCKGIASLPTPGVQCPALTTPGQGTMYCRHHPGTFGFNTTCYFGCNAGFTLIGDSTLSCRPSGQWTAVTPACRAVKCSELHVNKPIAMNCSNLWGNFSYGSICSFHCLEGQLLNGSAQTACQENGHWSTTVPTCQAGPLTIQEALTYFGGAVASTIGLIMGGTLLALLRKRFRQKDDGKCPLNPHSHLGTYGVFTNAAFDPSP
How it was run: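 Isolated human neutrophils (2×10^5 per well) in HBSS with Ca2+/Mg2+ and HSA added to wells coated overnight at 4° C with platelet-derived P-selectin (5 micrograms/mL), HSA-blocked; 20 min at 22° C. Nonadherent cells removed by inverted centrifugation at 150 g; adherent cells quantified by myeloperoxidase activity.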

[2] = disulfide bond, water

Row | Compound | IC50 [1] | further results
1 | CC(C)[C@@H](NC(=O)[C@@H](Cc1c[nH]c2ccccc12)NC(=O)[C@H](NC(=O)[C@@H](Cc1c[nH]c2ccccc12)NC(=O)[C@H]1CSSC[C@@H](NC(=O)[C@@H](CCCCN)NC(=O)[C@H](N)CCCNC(=N)N)C(=O)NCCCCC(=O)N1)[C@H](C)O)C(N)=O [(21)] (H-[dR][dK][dC][Ava][dC][dW][dT][dW][dV]-NH2; disulfide 3-5) | 23 µM | ring closure, yield of all isomers ([2]; from CC(C)[C@@H](NC(=O)[C@@H](Cc1c[nH]c2ccccc12)NC(=O)[C@H](NC(=O)[C@@H](Cc1c[nH]c2ccccc12)NC(=O)[C@@H](CS)NC(=O)CCCCNC(=O)[C@@H](CS)NC(=O)[C@@H](CCCCN)NC(=O)[C@H](N)CCCNC(=N)N)[C@H](C)O)C(N)=O, DMSO, 0.241 mM, 16.0 h): 13.2%
2 | CC(C)[C@@H](NC(=O)[C@@H](Cc1c[nH]c2ccccc12)NC(=O)[C@H](NC(=O)[C@@H](Cc1c[nH]c2ccccc12)NC(=O)[C@H]1CSSC[C@@H](NC(=O)[C@@H](CCCCN)NC(=O)[C@H](N)CCCNC(=N)N)C(=O)NCC(=O)N[C@H](CCCCN)C(=O)N1)[C@H](C)O)C(N)=O [(55)] (H-[dR][dK][dC]G[dK][dC][dW][dT][dW][dV]-NH2; disulfide 3-6) | 59.7 µM | ring closure, yield of all isomers ([2]; from CC(C)[C@@H](NC(=O)[C@@H](Cc1c[nH]c2ccccc12)NC(=O)[C@H](NC(=O)[C@@H](Cc1c[nH]c2ccccc12)NC(=O)[C@@H](CS)NC(=O)[C@@H](CCCCN)NC(=O)CNC(=O)[C@@H](CS)NC(=O)[C@@H](CCCCN)NC(=O)[C@H](N)CCCNC(=N)N)[C@H](C)O)C(N)=O, DMSO, 0.175 mM, 120.0 h): 10.6%
3 | CC[C@H](C)[C@H](NC(=O)[C@H](CCCCN)NC(=O)[C@@H](N)CCCNC(=N)N)C(=O)NCC(=O)NCC(=O)N[C@H]1CSSC[C@@H](C(N)=O)NC(=O)[C@H](Cc2c[nH]c3ccccc23)NC(=O)[C@H]([C@@H](C)O)NC(=O)[C@H](Cc2c[nH]c3ccccc23)NC1=O [(33)] (H-RKIGGCWTWC-NH2; disulfide 6-10) | 468 µM | ring closure, yield of all isomers ([2]; from CC[C@H](C)[C@H](NC(=O)[C@H](CCCCN)NC(=O)[C@@H](N)CCCNC(=N)N)C(=O)NCC(=O)NCC(=O)N[C@@H](CS)C(=O)N[C@@H](Cc1c[nH]c2ccccc12)C(=O)N[C@H](C(=O)N[C@@H](Cc1c[nH]c2ccccc12)C(=O)N[C@@H](CS)C(N)=O)[C@@H](C)O, DMSO, 0.7 mM, 25.0 °C, 16.0 h): 5.3%
4 | CC(C)[C@@H](NC(=O)[C@@H](Cc1c[nH]c2ccccc12)NC(=O)[C@H](NC(=O)[C@@H](Cc1c[nH]c2ccccc12)NC(=O)[C@H]1CSSC[C@@H](NC(=O)[C@@H](CCCCN)NC(=O)[C@H](N)CCCNC(=N)N)C(=O)N[C@H](C)C(=O)N[C@@H](Cc2ccccc2)C(=O)N1)[C@H](C)O)C(N)=O [(11)] (H-[dR][dK][dC][dA]F[dC][dW][dT][dW][dV]-NH2; disulfide 3-6) | 7 µM | ring closure, yield of all isomers ([2]; from CC(C)[C@@H](NC(=O)[C@@H](Cc1c[nH]c2ccccc12)NC(=O)[C@H](NC(=O)[C@@H](Cc1c[nH]c2ccccc12)NC(=O)[C@@H](CS)NC(=O)[C@H](Cc1ccccc1)NC(=O)[C@@H](C)NC(=O)[C@@H](CS)NC(=O)[C@@H](CCCCN)NC(=O)[C@H](N)CCCNC(=N)N)[C@H](C)O)C(N)=O, air, Cu wire, dilute AcOH/NH4OH pH 8.5, 3.08 mM): 2.4%
5 | CC(C)[C@@H](NC(=O)[C@@H](Cc1c[nH]c2ccccc12)NC(=O)[C@H](NC(=O)[C@@H](Cc1c[nH]c2ccccc12)NC(=O)[C@H]1CSSC[C@@H](NC(=O)[C@@H](CCCCN)NC(=O)[C@H](N)CCCNC(=N)N)C(=O)N2CCC[C@H]2C(=O)N[C@@H](Cc2ccccc2)C(=O)N1)[C@H](C)O)C(N)=O [(84)] (H-[dR][dK][dC]PF[dC][dW][dT][dW][dV]-NH2; disulfide 3-6) | 26.4 µM | ring closure, yield of all isomers ([2]; from CC(C)[C@@H](NC(=O)[C@@H](Cc1c[nH]c2ccccc12)NC(=O)[C@H](NC(=O)[C@@H](Cc1c[nH]c2ccccc12)NC(=O)[C@@H](CS)NC(=O)[C@H](Cc1ccccc1)NC(=O)[C@@H]1CCCN1C(=O)[C@@H](CS)NC(=O)[C@@H](CCCCN)NC(=O)[C@H](N)CCCNC(=N)N)[C@H](C)O)C(N)=O, air (copper wire, ammonium acetate pH 8.5), 0.756 mM, 25.0 °C): 12%
6 | CC(C)[C@@H](NC(=O)[C@@H](Cc1c[nH]c2ccccc12)NC(=O)[C@H](NC(=O)[C@H]1CCCN1C(=O)[C@H]1CSSC[C@@H](NC(=O)[C@@H](CCCCN)NC(=O)[C@H](N)CCCNC(=N)N)C(=O)NCC(=O)N[C@@H](Cc2ccccc2)C(=O)N1)[C@H](C)O)C(N)=O [(76)] (H-[dR][dK][dC]GF[dC][dP][dT][dW][dV]-NH2; disulfide 3-6) | 105 µM | ring closure, yield of all isomers ([2]; from CC(C)[C@@H](NC(=O)[C@@H](Cc1c[nH]c2ccccc12)NC(=O)[C@H](NC(=O)[C@H]1CCCN1C(=O)[C@@H](CS)NC(=O)[C@H](Cc1ccccc1)NC(=O)CNC(=O)[C@@H](CS)NC(=O)[C@@H](CCCCN)NC(=O)[C@H](N)CCCNC(=N)N)[C@H](C)O)C(N)=O, DMSO, 0.14 mM, 192.0 h): 20.6%
7 | CC(C)[C@@H](NC(=O)[C@@H](Cc1c[nH]c2ccccc12)NC(=O)[C@H](NC(=O)[C@@H](Cc1c[nH]c2ccccc12)NC(=O)[C@H]1CSSC[C@@H](NC(=O)[C@@H](CCCCN)NC(=O)[C@H](N)CCCNC(=N)N)C(=O)NCC(=O)N[C@H](Cc2ccccc2)C(=O)N1)[C@H](C)O)C(N)=O [(13)] (H-[dR][dK][dC]G[dF][dC][dW][dT][dW][dV]-NH2; disulfide 3-6) | 50 µM | ring closure, yield of all isomers ([2]; from CC(C)[C@@H](NC(=O)[C@@H](Cc1c[nH]c2ccccc12)NC(=O)[C@H](NC(=O)[C@@H](Cc1c[nH]c2ccccc12)NC(=O)[C@@H](CS)NC(=O)[C@@H](Cc1ccccc1)NC(=O)CNC(=O)[C@@H](CS)NC(=O)[C@@H](CCCCN)NC(=O)[C@H](N)CCCNC(=N)N)[C@H](C)O)C(N)=O, DMSO, 0.242 mM, 16.0 h): 10.7%
8 | CC(C)[C@@H](NC(=O)[C@@H](Cc1c[nH]c2ccccc12)NC(=O)[C@H](NC(=O)[C@@H](Cc1c[nH]c2ccccc12)NC(=O)[C@H]1CSSC[C@@H](NC(=O)[C@@H](CCCCN)NC(=O)[C@H](N)CCCNC(=N)N)C(=O)NCC(=O)N[C@@H](CCC(N)=O)C(=O)N1)[C@H](C)O)C(N)=O [(65)] (H-[dR][dK][dC]GQ[dC][dW][dT][dW][dV]-NH2; disulfide 3-6) | 46.2 µM and 78.3 µM | ring closure, yield of all isomers ([2]; from CC(C)[C@@H](NC(=O)[C@@H](Cc1c[nH]c2ccccc12)NC(=O)[C@H](NC(=O)[C@@H](Cc1c[nH]c2ccccc12)NC(=O)[C@@H](CS)NC(=O)[C@H](CCC(N)=O)NC(=O)CNC(=O)[C@@H](CS)NC(=O)[C@@H](CCCCN)NC(=O)[C@H](N)CCCNC(=N)N)[C@H](C)O)C(N)=O, Cu wire, NH4OH (printed NH2OH), 3.16 mM, 20.0 h): 6.1%
